Measured values as given in ChEMBL document CHEMBL5053536, “Discovery of Quinazoline-2,4(1H,3H)-dione Derivatives Containing 3-Substituted Piperizines as Potent PARP-1/2 Inhibitors─Design, Synthesis, In Vivo Antitumor Activity, and X-ray Crystal Structure Analysis” (J Med Chem, 2021).
Active and inactive are the calls of the source. The calls are words filed in the database; no cut-off is given here.

How the values were obtained:
[1] = MRT(0 to t) in Beagle dog at 0.4 mg/kg, iv measured upto 24 hrs by LC-MS/MS analysis; assay type: ADME, organism-based, Canis lupus familiaris; conditions: in vivo
[2] = MRT(0 to t) in Beagle dog at 20 mg/kg, po measured upto 24 hrs by LC-MS/MS analysis; assay type: ADME, organism-based, Canis lupus familiaris; conditions: in vivo
[3] = species: Homo sapiens; experiment: Selectivity index, ratio of IC50 for inhibition of recombinant human PARP2 to IC50 for inhibition of recombinant human PARP1
[4] = MRT(0 to t) in Sprague-Dawley rat at 20 mg/kg, po measured upto 24 hrs by LC-MS/MS analysis; assay type: ADME, organism-based; conditions: in vivo
[5] = test system: Mus musculus; experiment: Toxicity in BALB/c mouse xenografted with human U-87MG cells assessed as effect on body weight at 50 mg/kg, po administered once daily for 5 days and measured on day 8 in presence of 30 mg/kg TMZ (reference value: 18.5 +/- 1 g); assay type: organism-based; conditions: in vivo, 192 h, time 8 day
[6] = test system: MX1; experiment: Antitumor activity against human MX1 cells xenografted in athymic nu/nu mouse assessed as tumor growth inhibition at 12.5 mg/kg, po administered once daily for 5 days and measured on day 17 in presence of 50 mg/kg TMZ; assay type: functional; conditions: MX1, 408 h, time 17 day, read-out: TGI
[7] = Half life in Beagle dog at 0.4 mg/kg, iv measured upto 24 hrs by LC-MS/MS analysis; assay type: ADME, organism-based, Canis lupus familiaris; conditions: in vivo
[8] = test system: Mus musculus; experiment: Toxicity in BALB/c mouse xenografted with human U-87MG cells assessed as effect on body weight at 50 mg/kg, po administered once daily for 5 days and measured on day 8 (reference value: 18.2 +/- 0.6 g); assay type: organism-based; conditions: in vivo, 192 h, time 8 day
[9] = test system: U-87 MG; experiment: Antitumor activity against human U-87MG cells xenografted in BALB/c mouse assessed as reduction in tumor volume at 50 mg/kg, po administered once daily for 5 days and measured on day 8 in presence of 30 mg/kg TMZ by MRI scanner (reference value: 202 +/- 120.4 mm3); assay type: functional, U-87MG ATCC; conditions: time 8 day
[10] = test system: U-87 MG; experiment: Antitumor activity against human U-87MG cells xenografted in BALB/c mouse assessed as T/C ratio at 50 mg/kg, po administered once daily for 5 days and measured upto 32 days in presence of 30 mg/kg TMZ by MRI scanner; assay type: functional, U-87MG ATCC; conditions: time <= 32 day
[11] = AUC(0 to t) in Beagle dog at 20 mg/kg, po measured upto 24 hrs by LC-MS/MS analysis; assay type: ADME, organism-based, Canis lupus familiaris; parameters: time < 24 hrs, dose 20 mg/kg, route po; conditions: in vivo
[12] = test system: T98G; experiment: Inhibition of PARP1/2-mediated DNA repair in human T98G cells assessed as reduction in PAR formation at 1 to 10 uM after 24 hrs in presence of TMZ by Western blot analysis; assay type: cell-based; conditions: dose 1-10 µM
[13] = target: Poly [ADP-ribose] polymerase 2 (Homo sapiens, UniProt Q9UGN5); experiment: Inhibition of recombinant human PARP2 using NAD+ as substrate incubated for 1 hr by ELISA
Sequence of Poly [ADP-ribose] polymerase 2 (Q9UGN5 whole entry): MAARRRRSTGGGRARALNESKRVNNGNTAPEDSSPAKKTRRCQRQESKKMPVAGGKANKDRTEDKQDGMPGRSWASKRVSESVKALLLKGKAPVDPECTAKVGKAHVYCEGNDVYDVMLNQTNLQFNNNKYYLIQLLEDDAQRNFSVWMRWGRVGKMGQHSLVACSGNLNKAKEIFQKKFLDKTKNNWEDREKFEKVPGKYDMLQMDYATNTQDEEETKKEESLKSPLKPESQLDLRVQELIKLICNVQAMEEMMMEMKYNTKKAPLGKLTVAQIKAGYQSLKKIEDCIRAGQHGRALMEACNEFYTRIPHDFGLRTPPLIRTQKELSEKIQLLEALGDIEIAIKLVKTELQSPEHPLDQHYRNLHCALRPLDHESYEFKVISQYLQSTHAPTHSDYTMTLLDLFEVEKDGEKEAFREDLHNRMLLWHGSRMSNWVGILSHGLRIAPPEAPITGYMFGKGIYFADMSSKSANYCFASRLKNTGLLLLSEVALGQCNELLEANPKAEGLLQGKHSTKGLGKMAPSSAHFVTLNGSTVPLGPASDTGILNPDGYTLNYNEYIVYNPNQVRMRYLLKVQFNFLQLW

[14] = Cmax in Beagle dog at 0.4 mg/kg, iv measured upto 24 hrs by LC-MS/MS analysis; assay type: ADME, organism-based, Canis lupus familiaris; parameters: time < 24 hrs, dose 0.4 mg/kg, route iv; conditions: in vivo
[15] = test system: Mus musculus; experiment: Toxicity in athymic nu/nu mouse xenografted with human MX1 cells assessed as reduction in body weight at 12.5 to 25 mg/kg, po administered once daily for 5 days and measured upto day 17; assay type: organism-based; conditions: in vivo, 408 h, dose 12.5-25 mg/kg, time < 17 day
[16] = AUC(0 to t) in Beagle dog at 0.4 mg/kg, iv measured upto 24 hrs by LC-MS/MS analysis; assay type: ADME, organism-based, Canis lupus familiaris; parameters: time < 24 hrs, dose 0.4 mg/kg, route iv; conditions: in vivo
[17] = test system: MX1; experiment: Antitumor activity against human MX1 cells xenografted in athymic nu/nu mouse assessed as tumor growth inhibition at 25 mg/kg, po administered once daily for 5 days and measured on day 17 in presence of 50 mg/kg TMZ; assay type: functional; conditions: Mus musculus, MX1, 408 h, time 17 day, read-out: TGI
[18] = Tmax in Sprague-Dawley rat at 20 mg/kg, po measured upto 24 hrs by LC-MS/MS analysis; assay type: ADME, organism-based; conditions: in vivo
[19] = test system: T98G; experiment: Inhibition of PARP1/2-mediated DNA repair in human T98G cells assessed as reduction in PAR formation at 1 to 10 uM after 24 hrs in absence of TMZ by Western blot analysis; assay type: cell-based; conditions: dose 1-10 µM
[20] = MRT(0 to t) in BALB/c mouse at 25 mg/kg, po measured upto 24 hrs by LC-MS/MS analysis; assay type: ADME, organism-based; conditions: in vivo
[21] = Acute toxicity in po dosed Crl: […](ICR)-BR mouse after 14 days; assay type: organism-based; conditions: in vivo, time 14 day
[22] = test system: U-87 MG; experiment: Antitumor activity against human U-87MG cells xenografted in BALB/c mouse assessed as reduction in tumor volume at 50 mg/kg, po administered once daily for 5 days and measured on day 8 by MRI scanner (reference value: 202 +/- 120.4 mm3); assay type: functional, U-87MG ATCC; conditions: time 8 day
[23] = test system: T98G; experiment: Cytotoxicity against human T98G cells assessed as reduction in cell viability at 5 to 10 uM incubated for 72 hrs in presence of TMZ by MTT assay; assay type: functional, cell-based; conditions: dose 5-10 µM
[24] = test system: U-251; experiment: Inhibition of PARP1/2-mediated DNA repair in human U-251 cells assessed as reduction in PAR formation at 1 to 10 uM after 24 hrs in presence of TMZ by Western blot analysis; assay type: cell-based; conditions: dose 1-10 µM
[25] = test system: U-87 MG; experiment: Antitumor activity against human U-87MG cells xenografted in BALB/c mouse assessed as tumor growth inhibition at 25 mg/kg, po administered once daily for 5 days and measured upto 32 days in presence of 30 mg/kg TMZ by MRI scanner; assay type: functional, U-87MG ATCC; conditions: 768 h, time <= 32 day, read-out: TGI
[26] = test system: U-87 MG; experiment: Cytotoxicity against human U87MG cells assessed as reduction in cell viability at 5 to 10 uM incubated for 72 hrs in presence of TMZ by MTT assay; assay type: functional, cell-based; conditions: U-87MG ATCC, dose 5-10 µM
[27] = test system: Daoy; experiment: Cytotoxicity against human Daoy cells assessed as reduction in cell viability at 5 to 10 uM incubated for 72 hrs in presence of TMZ by MTT assay; assay type: functional, cell-based; conditions: dose 5-10 µM
[28] = Cmax in Sprague-Dawley rat at 20 mg/kg, po measured upto 24 hrs by LC-MS/MS analysis; assay type: ADME, organism-based; parameters: time < 24 hrs, dose 20 mg/kg, route po; conditions: in vivo
[29] = Tmax in Beagle dog at 20 mg/kg, po measured upto 24 hrs by LC-MS/MS analysis; assay type: ADME, organism-based, Canis lupus familiaris; conditions: in vivo
[30] = test system: U-251; experiment: Cytotoxicity against TMZ-resistant human U-251 cells assessed as reduction in cell viability at 5 to 10 uM incubated for 72 hrs in presence of TMZ by MTT assay; assay type: functional, cell-based; conditions: dose 5-10 µM
[31] = test system: U-87 MG; experiment: Antitumor activity against human U-87MG cells xenografted in BALB/c mouse assessed as reduction in tumor volume at 25 mg/kg, po administered once daily for 5 days and measured on day 8 in presence of 30 mg/kg TMZ by MRI scanner (reference value: 202 +/- 120.4 mm3); assay type: functional, U-87MG ATCC; conditions: time 8 day
[32] = test system: U-87 MG; experiment: Antitumor activity against human U-87MG cells xenografted in BALB/c mouse assessed as tumor growth inhibition at 50 mg/kg, po administered once daily for 5 days and measured upto 32 days in presence of 30 mg/kg TMZ by MRI scanner; assay type: functional, U-87MG ATCC; conditions: 768 h, time <= 32 day, read-out: TGI

CC[C@@H]1CN(C(=O)c2cc(Cn3c(=O)[nH]c(=O)c4ccccc43)ccc2F)CCN1CC
MRT last at 24 h [1]: 1.31 h
MRT last at 24 h [2]: 4.58 h
Ratio IC50 [3]: 45
MRT last at 24 h [4]: 1.24 h
Activity [5]: 16.3 g
inhibition in vivo at 12.5 mg/kg [6]: 71.5%
half-life [7]: 1.37 h
Activity [8]: 15.3 g
Activity [9]: 0 mm3
T/C [10]: 14.1%
AUC(0-t) at 24 h [11]: 34200 ng·h/mL
inhibition [12]: Active
IC50 [13]: 23.1 nM
Cmax [14]: 1250 ng/mL
Activity [15]: Non-Toxic
AUC(0-t) at 24 h [16]: 1410 ng·h/mL
inhibition in vivo at 25 mg/kg [17]: 86.8%
Tmax [18]: 4.98 min
inhibition [19]: Active
MRT last at 24 h [20]: 0.92 h
LD50 at 336 h [21]: 3500 mg/kg
Activity [22]: 218.6 mm3
Activity [23]: Active
inhibition [24]: Active
inhibition in vivo at 25 mg/kg [25]: 87.9%
Activity [26]: Active
Activity [27]: Active
Cmax [28]: 208 ng/mL
Tmax [29]: 0.5 h
Activity [30]: Active
Activity [31]: 0 mm3
inhibition in vivo at 50 mg/kg [32]: 85.9%
